The structures appear in SMILES notation.

In assay [1] the test system is UM-UC-17 bladder cancer cell line. Description: MTS IC50, UM-UC-17 bladder cancer cell line. Particulars: 1000 cells/well. The class given is cell-based. On the procedure: (§1) MTS was used to evaluate IC50 (drug concentration causing 50% inhibition of the desired activity) for SLs on various bladder, prostate, breast, lung and pancreatic cancer cell lines.
(§2) The MTS test was then conducted to evaluate the different IC50 of multiple cell lines. Purification was performed to separate the organic extract of SLs into different components. Micromolar doses, instead of micrograms, as determined by the molecular weight of the different SLs, Parthenin, Ambrosin, Damsin, and Neoambrosin, were tested in vitro. Ideally, for drug treatments, micromolar weights between 10-15 are preferred.

For assay [2], the system named is UM-UC-9 bladder cancer cell line. Description: MTS IC50, UM-UC-9 bladder cancer cell line. The class given is cell-based. Particulars: 1000 cells/well. As to the method:
as §1, §2

Assay [3] deals with UM-UC-15 bladder cancer cell line. Description: MTS IC50, UM-UC-15 bladder cancer cell line. It counts as cell-based. Particulars: 1000 cells/well. On the procedure: as §1, §2
In assay [4] the test system is UM-UC-7 bladder cancer cell line. Put plainly: MTS IC50, UM-UC-7 bladder cancer cell line. It counts as cell-based. Conditions: 1000 cells/well. On the procedure:
as §1, §2

Assay [5] concerns MDA-MB-231 breast cancer cell line. Put plainly: MTS IC50, MDA-MB-231 breast cancer cell line. The class given is cell-based. Particulars: for IC50: Homo sapiens, MDA-MB-231, individual SLs, MTS. On the procedure: as §1
Several TNBC cell lines were tested in vitro and were treated with serial concentrations of the extracted SLs from Ambrosia maritima to determine IC50.
(§3) The IC50 of the purified SLs, Parthenin, Ambrosin, Damsin, and Neoambrosin, were also tested for MDA-MB-231 cell line (FIG. 22), MDA-MB-468 (Basal Subtype Normal) cell line (FIG. 23), and BT-474 cell line (FIG. 24), an invasive ductal carcinoma cell line (luminal subtype B).
(§4) Similar tests were performed with the organic extract from Ambrosia hispida.

Assay [6] relates to MDA-MB-468 breast cancer cell line. Put plainly: MTS IC50, MDA-MB-468 breast cancer cell line. The class given is cell-based. Particulars: Homo sapiens, individual SLs. On the procedure:
as §1, §3

Assay [7] relates to BT-474 breast cancer cell line. Put plainly: MTS IC50, BT-474 breast cancer cell line. The class given is cell-based. Conditions: Homo sapiens, individual SLs. On the procedure: as §1, §3
Assay [8] has as its system prostate cancer cell line. Description: MTS IC50, prostate cancer cell line. It counts as cell-based. Conditions: purified sub fractions of the organic extraction.
Text: as §1
The concentration is in μmol. As expected, some of the sub fractions affected the cell line to a much greater extent to others.

Assay [9] has as its system BT-20 breast cancer cell line. Put plainly: MTS IC50, BT-20 breast cancer cell line. The class given is cell-based. Particulars: Ambrosin purified from Ambrosia hispida. As to the method:
as §1, §4

Assay [10] has as its system MDA-MB-231 breast cancer cells. Description: Orthotopic MDA-MB-231 breast cancer model. It counts as in vivo, mice. Particulars: MDA-MB-231 triple negative cell line. As to the method: Additional in vivo experiments were conducted for three breast cancer cell lines that were orthotopically injected into mice. Orthotopic injection of breast cancer cells is a powerful model to study all aspects of cancer growth. One million cells of each MDA-MB-231, SUM-159 and MDA-MB-468 were injected into the mammary fat pad of mice to form tumors. Once tumors were established, the tumors were treated with the SL-containing organic extraction of Ambrosia maritima at a dose of 200 μM of total SLs/animal daily.
FIGS. 11A-B show the histopathology of the tumor area in the mice treated with the SLs extracted from Ambrosia maritima versus control animals for the SUM-159 and MDA-MB-231 cell lines.
Thus, these components can be purified individually from the SL organic fraction and then combined as a potential treatment.

Assay [11] relates to UM-UC-9 (bladder) and BT-20 (breast) cancer cell line. Description: Bromouridine sequencing of nascent transcription. The class given is cell-based. Conditions: 3.5 hours treatment. As to the method: A common method of monitoring RNA changes is by labeling new RNA with Bromouridine, then isolate the RNA to see where the new RNA was made. Bromouridine sequencing is well known in the art.
We used this method to monitor RNA in the UM-UC-9 (bladder) and BT-20 (breast) cancer cell line to detect the level of nascent transcription on the genome after treatment with SLs. Both cell lines were treated with the whole organic fraction at one time, or purified Ambrosin from the organic fraction at different doses for 3.5 hours. The RNA was then labeled with Bromouridine for half an hour and sequenced to detect the level of nascent transcription in the genome.

Take `C=C1C(=O)O[C@@H]2[C@H]1CC[C@H](C)[C@@H]1C=CC(=O)[C@@]21C` (single isomer, unassigned) [AMBROSIN, Ambrosin]: the IC50 (commonly the point on the concentration scale where inhibition reaches its midpoint) was 1.35 µM in assay [1]; 6.25 µM in [2] (MTS); less than 10 µM in assay [2] (UM-UC-9, MTS); 991 nM in [3]; 4.89 µM in [4]; 1.02 µM in assay [5]. Moreover, the IC50 was 882 nM in [6], 2.17 µM in [7] and 2.71 µM in assay [8]. For the same molecule, in assay [5] (Ambrosin purified from Ambrosia hispida), the “IC50 of purified Ambrosin compared with SL extract of Ambrosia hispida, MDA-MB-231” value was “greater IC50”. In addition, the “IC50 of purified Ambrosin compared with SL extract of Ambrosia hispida, BT-20” value in [9] is “greater IC50”. Moreover, the “level of expression of HER2 and p65 in xenografted animals” value in assay [10] is on record as “significant improves”. Further, the “nascent transcription of genes of apoptotic pathway, reactive oxygen species pathway” value in assay [11] is reported as “upregulated”. Also, the “nascent transcription of hallmark genes related to cancer progression and proliferation” value in [11] is “transcribing them at lower level than the control”.
Take `C=C1C(=O)O[C@@H]2[C@H]1CC[C@H](C)[C@@H]1CCC(=O)[C@@]21C` (single isomer, unassigned) [DAMSIN, Damsin]: the IC50 in assay [1] was 2.86 µM; in [2] (MTS) it was 4.73 µM; in assay [3], 1060 nM; in [4], 1.09 µM; in assay [5], 1.6 µM; in assay [6] it was 935 nM. Besides, the IC50 in assay [7] worked out at 2.8 µM; in assay [8], 1.16 µM. In addition, the “level of expression of HER2 and p65 in xenografted animals” value in assay [10] is on record as “significant improves”.
As to `C=C1C(=O)O[C@@H]2[C@H]1CC[C@H](C)C1=CCC(=O)[C@]12C` (single isomer, unassigned) [NEOAMBROSIN, Neoambrosin], the IC50 was determined as 31.8 µM in assay [1]; 142 µM in assay [2] (UM-UC-9, MTS); 146000 nM in assay [3]; 120 µM in [4]; 22.5 µM in [5]; 9080 nM in assay [6]. Also, the values for the IC50 in assay [7] and in assay [8] were 36.1 µM and 264 µM, respectively.
For the molecule `C=C1C(=O)O[C@@H]2[C@H]1CC[C@H](C)[C@]1(O)C=CC(=O)[C@@]21C` (single isomer, unassigned) [PARTHENIN, Parthenin], the IC50 in assay [1] turned out to be 6.32 µM; in assay [2] (UM-UC-9, MTS), 14.2 µM; in [3], 4900 nM; in assay [4] it was 6.49 µM; in assay [5] it was 4.74 µM; in [6] it was 1230 nM. The IC50 in assay [7] turned out to be 8.57 µM; in assay [8], 4.88 µM.

For the origin of these results see patent US10653739B2, “Medicinal ambrosia maritima extracts” (priority 2015, dated 2020).
